Measured values from patent publication US8318707B2 (priority 2006, dated 2012).

Columns and labels:
[1] = tested on: mixed neural culture of hippocampus cells exposed to kainate; format: cell-based, rat
[2] = tested on: permanent focal ischemia (occlusion of the middle cerebral artery); assay: in vivo permanent focal ischemia model in mice (MCAo), lesion volume by TTC colouring
[3] = tested on: organotypical slices of rat hippocampus (CA3 region); assay: in vitro complex excitotoxicity model: organotypical rat hippocampus culture exposed to kainate; settings: 20 μM, 24 hours

| SMILES | amount necessary compared with (S)-roscovitine to prevent the death of the same number of neurones [1] | neuronal death percentage (RND) [1] [%] | neurones prevented from death compared with (R)-roscovitine [1] | reduction in the size of the penumbra zone compared with the control ([2]; ICV, 500 μM, 3 hours after occlusion) [%] | volume of the necrotic core ([2]; ICV, 500 μM, 3 hours after occlusion (control 6.06 mm3)) [mm3] | volume of the penumbra zone ([2]; ICV, 500 μM, 3 hours after occlusion (control 12.68 mm3)) [mm3] | total volume of the lesion ([2]; ICV, 500 μM, 3 hours after occlusion (control 18.74 mm3)) [mm3] | reduction in the total volume of the lesion compared with the control ([2]; intracerebroventricular (ICV), 500 μM by osmotic micropump from 48 hours before MCAo, 3 hours after occlusion) [%] | reduction in the size of the penumbra compared with the control ([2]; systemic (PI), 25 mg/kg intraperitoneal x2, 3 hours after occlusion) [%] | volume of the necrotic core ([2]; systemic (PI), 25 mg/kg intraperitoneal x2, 3 hours after occlusion (control 5.03 mm3)) [mm3] | volume of the penumbra zone ([2]; systemic (PI), 25 mg/kg intraperitoneal x2, 3 hours after occlusion (control 15.31 mm3)) [mm3] | total volume of the lesion ([2]; systemic (PI), 25 mg/kg intraperitoneal x2, 3 hours after occlusion (control 20.34 mm3)) [mm3] | reduction in the total volume of the lesion compared with the control ([2]; systemic (PI), 25 mg/kg, 2 intraperitoneal injections 15 minutes before and 1 hour after MCAo, 3 hours after occlusion) [%] | toxic effect on organotypical rat hippocampus cultures [3] |
| --- | --- | --- | --- | --- | --- | --- | --- | --- | --- | --- | --- | --- | --- | --- |
| CC[C@H](CO)Nc1nc(NCc2ccccc2)c2ncn(C(C)C)c2n1 [(R)-roscovitine] | Three times more | 62 |  |  |  |  |  |  |  |  |  |  |  |  |
| CC[C@@H](CO)Nc1nc(NCc2ccccc2)c2ncn(C(C)C)c2n1 [(S)-roscovitine] |  |  | twice as many | 35.8 | 5.39 | 8.14 | 13.54 | 27.7 | 38.9 | 4.88 | 9.22 | 14.10 | 30.7 | absence of toxic effect |
